Results on 20 compounds are retold here after US9999619B2, “Piperidin-4-yl azetidine derivatives as JAK1 inhibitors” (Incyte Corporation, priority 2010, dated 2018).

Holding throughout (format): biochemical
One experiment deals with Jak2 (a.a. 828-1132) (Homo sapiens (Human), UniProt O60674). Put plainly: In vitro JAK kinase assay (HTRF, phosphorylation of a biotinylated peptide), JAK2. Conditions: measured at 1 mM ATP. Put shortly:
(§1)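 N-terminal His-tagged catalytic domains, baculovirus-expressed in insect cells, phosphorylated a biotinylated peptide for 1 hr at room temperature. EDTA stop was followed by SA-APC and Eu-Py20 antibody for 40 minutes, with phosphopeptide read by HTRF.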
A general note: Time-resolved FRET reads energy transfer from a long-lived donor to a nearby acceptor.

Experiment [1] addresses human JAK1 (a.a. 837-1142). Put plainly: In vitro JAK kinase assay (HTRF, phosphorylation of a biotinylated peptide), JAK1. Conditions: ratio of JAK2 IC50 to JAK1 IC50, measured at 1 mM ATP. An outline of the steps: as §1
Experiment [2] concerns the target human JAK1 (a.a. 837-1142) (Homo sapiens, UniProt P23458). Described as above. Conditions: measured at 1 mM ATP. Put shortly:
as §1

Where a name gives a salt, the structure may show the parent alone. Some results are limits rather than exact numbers.

Sequence of Jak2 (a.a. 828-1132) (O60674 828-1132): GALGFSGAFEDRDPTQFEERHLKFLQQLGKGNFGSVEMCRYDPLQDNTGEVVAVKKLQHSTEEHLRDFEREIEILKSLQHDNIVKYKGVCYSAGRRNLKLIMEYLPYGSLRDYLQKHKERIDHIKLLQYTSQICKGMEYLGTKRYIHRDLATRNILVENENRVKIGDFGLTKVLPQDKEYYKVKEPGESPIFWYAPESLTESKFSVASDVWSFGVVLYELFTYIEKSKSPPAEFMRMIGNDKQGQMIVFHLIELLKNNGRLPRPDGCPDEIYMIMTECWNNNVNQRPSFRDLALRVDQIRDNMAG

For orientation: IC50 means the midpoint of a concentration-inhibition curve. High values mean a need for much substance, low ones inhibition by little substance. Take `N#CCC1(n2ccc(-c3ncnc4[nH]ccc34)c2)CN(C2CCN(C(=O)c3ccc(O)c(C(F)(F)F)c3)CC2)C1` [Example 282, {1-{1-[4-hydroxy-3-(trifluoromethyl)benzoyl]piperidin-4-yl}-3-[3-(7H-pyrrolo[2,3-d]pyrimidin-4-yl)-1H-pyrrol-1-yl]azetidin-3-yl}acetonitrile]: the results for the concentration for half-maximal inhibition (IC50) (on Jak2 (a.a. 828-1132); in experiment [2]) were 10 to 50 nM and 5 to 20 nM, respectively. In experiment [1], the “IC50 Ratio JAK2/JAK1” value is on record as 3.4.
Consider `N#CCC1(n2cc(-c3ncnc4[nH]ccc34)cn2)CN(C2CCN(C(=O)c3ccc(-c4ccc5cccnc5c4)c(F)c3)CC2)C1` [Example 134, {1-[1-(3-fluoro-4-quinolin-7-ylbenzoyl)piperidin-4-yl]-3-[4-(7H-pyrrolo[2,3-d]pyrimidin-4-yl)-1H-pyrazol-1-yl]azetidin-3-yl}acetonitrile], for which the values for the IC50 (at Jak2 (a.a. 828-1132); in experiment [2]) were 10 to 50 nM and not above 5 nM, respectively. The “IC50 Ratio JAK2/JAK1” value in experiment [1] is listed as 6.7.
On to `CN(CCCO)Cc1cc(C(=O)N2CCC(N3CC(CC#N)(n4cc(-c5ncnc6[nH]ccc56)cn4)C3)CC2)nc(C(F)(F)F)n1` [Example 385, {1-(1-{[6-{[(3-hydroxypropyl)(methyl)amino]methyl}-2-(trifluoromethyl)pyrimidin-4-yl]carbonyl}piperidin-4-yl)-3-[4-(7H-pyrrolo[2,3-d]pyrimidin-4-yl)-1H-pyrazol-1-yl]azetidin-3-yl}acetonitrile], for which the figures for the half-maximal inhibitory concentration (IC50) (on Jak2 (a.a. 828-1132); in experiment [2]) were 50 to 100 nM and not above 5 nM, respectively. Further, the “IC50 Ratio JAK2/JAK1” value in experiment [1] came to 28.9.
For `N#CCC1(n2cc(-c3c(F)cnc4[nH]ccc34)cn2)CN(C2CCN(C(=O)c3ccc(O)c(F)c3)CC2)C1` [Example 322, {1-[1-(3-fluoro-4-hydroxybenzoyl)piperidin-4-yl]-3-[4-(5-fluoro-1H-pyrrolo[2,3-b]pyridin-4-yl)-1H-pyrazol-1-yl]azetidin-3-yl}acetonitrile], in that order: not above 10 nM, not above 5 nM and 4.7.
The corresponding values for `N#CCC1(n2cc(-c3ccnc4[nH]ccc34)cn2)CN(C2CCN(C(=O)Nc3ccccc3F)CC2)C1` [Example 309, 4-{3-(cyanomethyl)-3-[4-(1H-pyrrolo[2,3-b]pyridin-4-yl)-1H-pyrazol-1-yl]azetidin-1-yl}-N-(2-fluorophenyl)piperidine-1-carboxamide] are 10 to 50 nM, 5 to 20 nM and 5.3.
As for `N#CCC1(n2cc(-c3ncnc4[nH]ccc34)cn2)CN(C2CCN(C(=O)c3cccc(F)c3)CC2)C1` [Example 25, {1-[1-(3-fluorobenzoyl)piperidin-4-yl]-3-[4-(7H-pyrrolo[2,3-d]pyrimidin-4-yl)-1H-pyrazol-1-yl]azetidin-3-yl}acetonitrile], the IC50 is 10 to 50 nM at Jak2 (a.a. 828-1132) and not above 5 nM in experiment [2]. Moreover, the “IC50 Ratio JAK2/JAK1” value in experiment [1] came out at 5.8.
For `N#CCC1(n2cc(-c3ncnc4[nH]ccc34)cn2)CN(C2CCN(C(=O)c3cc(CN4CC[C@H](F)C4)nc(C(F)(F)F)n3)CC2)C1` [Example 377, {1-(1-{[6-{[(3S)-3-fluoropyrrolidin-1-yl]methyl}-2-(trifluoromethyl)pyrimidin-4-yl]carbonyl}piperidin-4-yl)-3-[4-(7H-pyrrolo[2,3-d]pyrimidin-4-yl)-1H-pyrazol-1-yl]azetidin-3-yl}acetonitrile (trifluoroacetate salt: 4 TFA)], in that order: 10 to 50 nM, not above 5 nM and 35.7.
For `N#CCC1(n2cc(-c3ncnc4[nH]ccc34)cn2)CN(C2CCN(C(=O)c3cc(F)cc(Cl)c3)CC2)C1` [Example 28, {1-[1-(3-chloro-5-fluorobenzoyl)piperidin-4-yl]-3-[4-(7H-pyrrolo[2,3-d]pyrimidin-4-yl)-1H-pyrazol-1-yl]azetidin-3-yl}acetonitrile], in that order: not above 10 nM, not above 5 nM and 8.5.
The corresponding values for `CN(C)Cc1cc(C(=O)N2CCC(N3CC(CC#N)(n4cc(-c5ncnc6[nH]ccc56)cn4)C3)CC2)c(F)c(C(F)(F)F)n1` [Example 368, {1-{1-[6-[(dimethylamino)methyl]-3-fluoro-2-(trifluoromethyl)isonicotinoyl]piperidin-4-yl}-3-[4-(7H-pyrrolo[2,3-d]pyrimidin-4-yl)-1H-pyrazol-1-yl]azetidin-3-yl}acetonitrile] are 10 to 50 nM, not above 5 nM and 54.2.
For the compound `Cn1c(NC(=O)N2CCC(N3CC(CC#N)(n4cc(-c5ncnc6[nH]ccc56)cn4)C3)CC2)nc2ccccc21` [Example 194, 4-{3-(cyanomethyl)-3-[4-(7H-pyrrolo[2,3-d]pyrimidin-4-yl)-1H-pyrazol-1-yl]azetidin-1-yl}-N-(1-methyl-1H-benzimidazol-2-yl)piperidine-1-carboxamide], the IC50 is not above 10 nM at Jak2 (a.a. 828-1132) and not above 5 nM in experiment [2]. The “IC50 Ratio JAK2/JAK1” value in experiment [1] turned out to be 2.2.
Turning to `N#CCC1(n2cc(-c3ncnc4[nH]ccc34)cn2)CN(C2CCN(C(=O)OCc3cc(F)cc(F)c3)CC2)C1` [Example 395, 3,5-difluorobenzyl 4-{3-(cyanomethyl)-3-[4-(7H-pyrrolo[2,3-d]pyrimidin-4-yl)-1H-pyrazol-1-yl]azetidin-1-yl}piperidine-1-carboxylate], the IC50 against Jak2 (a.a. 828-1132) was 50 to 100 nM; in experiment [2], not above 5 nM. The “IC50 Ratio JAK2/JAK1” value in experiment [1] was 24.4.
For `N#CCC1(n2cc(-c3ncnc4[nH]ccc34)cn2)CN(C2CCN(C(=O)c3ccc(-c4ccc5ncccc5c4)c(F)c3)CC2)C1` [Example 2, {1-[1-(3-Fluoro-4-quinolin-6-ylbenzoyl)piperidin-4-yl]-3-[4-(7H-pyrrolo[2,3-d]pyrimidin-4-yl)-1H-pyrazol-1-yl]azetidin-3-yl}acetonitrile], in that order: 50 to 100 nM, not above 5 nM and 12.3.
For `N#CCC1(n2cc(-c3ncnc4[nH]ccc34)cn2)CN(C2CCN(C(=O)Nc3ccsc3)CC2)C1` [Example 179, 4-{3-(cyanomethyl)-3-[4-(7H-pyrrolo[2,3-d]pyrimidin-4-yl)-1H-pyrazol-1-yl]azetidin-1-yl}-N-3-thienylpiperidine-1-carboxamide], in that order: 50 to 100 nM, 5 to 20 nM and 3.8.
The corresponding values for `N#CCC1(n2cc(-c3c(C#N)cnc4[nH]ccc34)cn2)CN(C2CCN(C(=O)c3cc(C#N)cc(C#N)c3)CC2)C1` [Example 338, 5-[(4-{3-(cyanomethyl)-3-[4-(5-cyano-1H-pyrrolo[2,3-b]pyridin-4-yl)-1H-pyrazol-1-yl]azetidin-1-yl}piperidin-1-yl)carbonyl]isophthalonitrile] are 50 to 100 nM, 5 to 20 nM and 7.4.
Consider `N#CCC1(n2cc(-c3ncnc4[nH]ccc34)cn2)CN(C2CCN(C(=O)c3cc(Cl)cc(C(F)(F)F)n3)CC2)C1` [Example 53, {1-(1-{[4-chloro-6-(trifluoromethyl)pyridin-2-yl]carbonyl}piperidin-4-yl)-3-[4-(7H-pyrrolo[2,3-d]pyrimidin-4-yl)-1H-pyrazol-1-yl]azetidin-3-yl}acetonitrile], for which the figures for the IC50 (on Jak2 (a.a. 828-1132); in experiment [2]) were 10 to 50 nM and not above 5 nM, respectively. In experiment [1], the “IC50 Ratio JAK2/JAK1” value is reported as 9.4.
For the compound `N#CCC1(n2cc(-c3ncnc4[nH]ccc34)cn2)CN(C2CCN(C(=O)Nc3ccc(Cl)cc3F)CC2)C1` [Example 178, N-(4-chloro-2-fluorophenyl)-4-{3-(cyanomethyl)-3-[4-(7H-pyrrolo[2,3-d]pyrimidin-4-yl)-1H-pyrazol-1-yl]azetidin-1-yl}piperidine-1-carboxamide], the figures for the IC50 (at Jak2 (a.a. 828-1132); in experiment [2]) were not above 10 nM and not above 5 nM, respectively. In experiment [1], the “IC50 Ratio JAK2/JAK1” value amounted to 6.5.
The corresponding values for `N#CCC1(n2cc(-c3ncnc4[nH]ccc34)cn2)CN(C2CCN(C(=O)c3c(F)cccc3C(F)(F)F)CC2)C1` [Example 45, {1-{1-[2-fluoro-6-(trifluoromethyl)benzoyl]piperidin-4-yl}-3-[4-(7H-pyrrolo[2,3-d]pyrimidin-4-yl)-1H-pyrazol-1-yl]azetidin-3-yl}acetonitrile] are 10 to 50 nM, not above 5 nM and 3.1.
For `N#CCC1(n2cc(-c3c(C#N)cnc4[nH]ccc34)cn2)CN(C2CCN(C(=O)c3ccnc(C(F)(F)F)c3F)CC2)C1` [Example 332, 4-[1-(3-(Cyanomethyl)-1-{1-[3-fluoro-2-(trifluoromethyl)isonicotinoyl]piperidin-4-yl}azetidin-3-yl)-1H-pyrazol-4-yl]-1H-pyrrolo[2,3-b]pyridine-5-carbonitrile], in that order: 50 to 100 nM, not above 5 nM and 19.3.
In the case of `N#CCC1(n2cc(-c3ncnc4[nH]ccc34)cn2)CN(C2CCN(C(=O)C3CCCCC3)CC2)C1` [Example 8, {1-[1-(cyclohexylcarbonyl)piperidin-4-yl]-3-[4-(7H-pyrrolo[2,3-d]pyrimidin-4-yl)-1H-pyrazol-1-yl]azetidin-3-yl}acetonitrile], the IC50 was 50 to 100 nM against Jak2 (a.a. 828-1132) and 5 to 20 nM in experiment [2]. The “IC50 Ratio JAK2/JAK1” value in experiment [1] is recorded as 11.0.
For `COc1ccc(C(=O)N2CCC(N3CC(CC#N)(n4cc(-c5ncnc6[nH]ccc56)cn4)C3)CC2)cc1F` [Example 5, {1-[1-(3-fluoro-4-methoxybenzoyl)piperidin-4-yl]-3-[4-(7H-pyrrolo[2,3-d]pyrimidin-4-yl)-1H-pyrazol-1-yl]azetidin-3-yl}acetonitrile], in that order: 10 to 50 nM, not above 5 nM and 12.0.
